Assay [1] concerns late watergrass. The experiment in a line: Test Example 1: herbicidal activity, application before weed generation under submerged conditions (Table 16, symbol A). Particulars: amount of applied herbicide 320 g/ha. In kind it is in vivo, late watergrass (Echinochloa oryzicola). The gist of the method: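 Submerged Wagner pots (alluvial soil, 4 cm water) sown with weed seeds and planted with 2.5-leaf rice seedlings; emulsifiable concentrate diluted in water applied to water surface on sowing day. Held in greenhouse at 25-30 °C; injury scored 0-5 by herbicidal rate after three weeks.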

Assay [2] deals with late watergrass. Put plainly: Test Example 2: herbicidal activity, application during weed generation under submerged conditions (Table 17, symbol A). It counts as in vivo, late watergrass (Echinochloa oryzicola). Particulars: AAH 320 g/ha; application during weed generation, submerged conditions. The gist of the method:
(§1)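 In this pot test, flooded alluvial soil (water depth 4 cm) holds all three species sown as a mixture. Once seedlings have one to two leaves, the compound's emulsion, thinned with water to the intended dose, is poured on the water; grading follows after three weeks on the earlier criteria.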

In a further assay the test system is oval-leafed pondweed. The experiment in a line: Test Example 2: herbicidal activity, application during weed generation under submerged conditions (Table 17, symbol C). In kind it is in vivo, oval-leafed pondweed (Monochoria vaginalis). Particulars: AAH 320 g/ha; application during weed generation, submerged conditions. The method, boiled down: as §1
The subject of assay [3] is barnyard grass. Put plainly: Test Example 3: herbicidal effect by foliage application, Wagner pot (Table 18, symbol H). In kind it is in vivo, barnyard grass (Echinochloa crus-galli). The gist of the method: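 Plants were sown in alluvial soil held under 0.1–0.5 cm standing water and grown 14 days in a greenhouse at 25–30 °C. An emulsifiable formulation, water-diluted to the set dose, was then sprayed onto the foliage, and effects were scored three weeks later using previously defined criteria.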

The subject of the next assay is southern crabgrass. The experiment in a line: Test Example 4: herbicidal effect by soil treatment (Table 19, symbol F). It counts as in vivo, southern crabgrass (Digitaria ciliaris). Particulars: amount of applied herbicide 320 g/ha. The method, boiled down: (§2)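 Applied as a water-diluted emulsion, the compound was sprayed onto soil covering newly sown seeds. Evaluation came three weeks after application, in a greenhouse held at 25° C. to 30° C.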

The subject of assay [4] is barnyard grass. Put plainly: Test Example 4: herbicidal effect by soil treatment (Table 19, symbol H). In kind it is in vivo, barnyard grass (Echinochloa crus-galli). Particulars: amount of applied herbicide 320 g/ha. The method, boiled down:
as §2

Assay [5] has as its system blackgrass. Put plainly: Test Example 4: herbicidal effect by soil treatment (Table 19, symbol J). In kind it is in vivo, blackgrass (Alopecurus myosuroides). Particulars: amount of applied herbicide 320 g/ha. The method, boiled down: as §2
Assay [6] has as its system velvetleaf. Put plainly: Test Example 4: herbicidal effect by soil treatment (Table 19, symbol M). In kind it is in vivo, velvetleaf (Abutilon theophrasti). Particulars: amount of applied herbicide 320 g/ha. The gist of the method: as §2
The next assay relates to lambsquarters. Put plainly: Test Example 4: herbicidal effect by soil treatment (Table 19, symbol O). It counts as in vivo, lambsquarters (Chenopodium album). Particulars: amount of applied herbicide 320 g/ha. The method, boiled down: as §2
Another assay deals with green foxtail. The experiment in a line: Test Example 5: herbicidal effect by foliage application, plastic box (Table 20, symbol G). It counts as in vivo, green foxtail (Setaria viridis). Particulars: foliage application, 320 g/ha, three weeks after application. The method, boiled down:
(§3)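 Sow seeds spot-wise in sterilized diluvial soil; cover with ~1.5 cm soil. Grow 14 days in greenhouse, 25° C. to 30° C. Spray foliage with emulsion diluted to predetermined amount. Rate effect after 3 weeks.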

Assay [7] concerns barnyard grass. Put plainly: Test Example 5: herbicidal effect by foliage application, plastic box (Table 20, symbol H). It counts as in vivo, barnyard grass (Echinochloa crus-galli). Particulars: foliage application, 320 g/ha, three weeks after application. The gist of the method: as §3
In assay [8] the test system is blackgrass. Put plainly: Test Example 5: herbicidal effect by foliage application, plastic box (Table 20, symbol J). It counts as in vivo, blackgrass (Alopecurus myosuroides). Particulars: foliage application, 320 g/ha, three weeks after application. The gist of the method:
as §3

Another assay concerns Italian ryegrass. The experiment in a line: Test Example 5: herbicidal effect by foliage application, plastic box (Table 20, symbol K). In kind it is in vivo, Italian ryegrass (Lolium multiflorum). Particulars: foliage application, 320 g/ha, three weeks after application. The method, boiled down: as §3
Assay [9] concerns velvetleaf. Put plainly: Test Example 5: herbicidal effect by foliage application, plastic box (Table 20, symbol M). In kind it is in vivo, velvetleaf (Abutilon theophrasti). Particulars: foliage application, 320 g/ha, three weeks after application. The gist of the method: as §3
The next assay deals with chickweed. The experiment in a line: Test Example 5: herbicidal effect by foliage application, plastic box (Table 20, symbol P). In kind it is in vivo, common chickweed (Stellaria media). Particulars: foliage application, 320 g/ha, three weeks after application. The method, boiled down: as §3
In the next assay the test system is persian speedwell. Put plainly: Test Example 4: herbicidal effect by soil treatment (Table 19, symbol R). It counts as in vivo, Persian speedwell (Veronica persica). Particulars: amount of applied herbicide 320 g/ha. The method, boiled down:
as §2

Turning to `COc1ccccc1-c1sc2cc(OCC3CCCO3)ccc2c1-c1c(O)c(C)nn(C)c1=O` (centres unmarked) [3-133], the “Herbicidal effect, A: late watergrass” value in the assay on late watergrass [1] was 3 (Herbicidal rate of 40% or more and less than 70%). The “herbicidal effect rating, A: late watergrass” value in the assay on late watergrass [2] was 2 (Herbicidal rate of 20% or more and less than 40%). The “herbicidal effect rating, C: oval-leafed pondweed” value in the assay with oval-leafed pondweed is 1 (Herbicidal rate of 5% or more and less than 20%). Besides, the “herbicidal effect on barnyard grass (H)” value with barnyard grass [3] (320 g/ha) is 3 (Herbicidal rate of 40% or more and less than 70%). The “Herbicidal effect by soil treatment, F: southern crabgrass” value with southern crabgrass is 2 (Herbicidal rate of 20% or more and less than 40%). The “Herbicidal effect by soil treatment, H: barnyard grass” value in the assay on barnyard grass [4] is 1 (Herbicidal rate of 5% or more and less than 20%). Moreover, the “Herbicidal effect by soil treatment, J: blackgrass” value in the assay on blackgrass [5] is 3 (Herbicidal rate of 40% or more and less than 70%). The “Herbicidal effect by soil treatment, M: velvetleaf” value in the assay on velvetleaf [6] was 1 (Herbicidal rate of 5% or more and less than 20%). For the same compound, in the assay with lambsquarters, the “Herbicidal effect by soil treatment, O: lambsquarters” value is recorded as 5 (Herbicidal rate of 90% or more (almost completely withered)). In the assay on green foxtail, the “G: green foxtail, herbicidal effect grade” value is on record as 5 (Herbicidal rate of 90% or more (almost completely withered)). Further, the “H: barnyard grass, herbicidal effect grade” value in the assay on barnyard grass [7] is 3 (Herbicidal rate of 40% or more and less than 70%). For the same compound, the “J: blackgrass, herbicidal effect grade” value in the assay with blackgrass [8] is listed as 5 (Herbicidal rate of 90% or more (almost completely withered)). Besides, the “K: Italian ryegrass, herbicidal effect grade” value in the assay with Italian ryegrass is listed as 5 (Herbicidal rate of 90% or more (almost completely withered)). Further, the “M: velvetleaf, herbicidal effect grade” value in the assay on velvetleaf [9] is 3 (Herbicidal rate of 40% or more and less than 70%). Further, the “P: chickweed, herbicidal effect grade” value with chickweed is 5 (Herbicidal rate of 90% or more (almost completely withered)).

`COc1ccccc1-c1sc2c(Cl)c(OC)ccc2c1-c1c(O)c(C)nn(C)c1=O` [Compound No. 7-001, 4-(7-chloro-6-methoxy-2-(2-methoxyphenyl)benzo[b]thiophen-3-yl)-5-hydroxy-2,6-dimeth ylpyridazin-3-(2H)-one]: in the assay on late watergrass [1], the “Herbicidal effect, A: late watergrass” value was 3 (Herbicidal rate of 40% or more and less than 70%). In addition, the “herbicidal effect rating, A: late watergrass” value in the assay on late watergrass [2] was 3 (Herbicidal rate of 40% or more and less than 70%). In the assay with oval-leafed pondweed, the “herbicidal effect rating, C: oval-leafed pondweed” value is 3 (Herbicidal rate of 40% or more and less than 70%). The “Herbicidal effect on H (barnyard grass), foliage application” value with barnyard grass [3] (amount of applied herbicide 320 g/ha) was 5 (Herbicidal rate of 90% or more (almost completely withered)). Besides, in the assay with southern crabgrass, the “F: southern crabgrass, herbicidal effect grade” value is given as 0 (Herbicidal rate of 5% or less (almost no effect)). In addition, the “H: barnyard grass, herbicidal effect grade” value with barnyard grass [4] was 3 (Herbicidal rate of 40% or more and less than 70%). Besides, in the assay on velvetleaf [6], the “M: velvetleaf, herbicidal effect grade” value was 3 (Herbicidal rate of 40% or more and less than 70%). Besides, in the assay with lambsquarters, the “O: lambsquarters, herbicidal effect grade” value was 5 (Herbicidal rate of 90% or more (almost completely withered)). In addition, in the assay with persian speedwell, the “R: persian speedwell, herbicidal effect grade” value is recorded as 5 (Herbicidal rate of 90% or more (almost completely withered)). Besides, in the assay with green foxtail, the “herbicidal effect on green foxtail (G)” value was 4 (Herbicidal rate of 70% or more and less than 90%). Also, the “herbicidal effect on barnyard grass (H)” value in the assay with barnyard grass [7] was 5 (Herbicidal rate of 90% or more (almost completely withered)). In the assay on blackgrass [8], the “herbicidal effect on blackgrass (J)” value is 4 (Herbicidal rate of 70% or more and less than 90%). The “herbicidal effect on Italian ryegrass (K)” value in the assay with Italian ryegrass was 5 (Herbicidal rate of 90% or more (almost completely withered)). Besides, in the assay with velvetleaf [9], the “herbicidal effect on velvetleaf (M)” value was 5 (Herbicidal rate of 90% or more (almost completely withered)).

The values are drawn from patent US20230085307A1, “PYRIDAZINONE COMPOUND AND HERBICIDE” (NISSAN CHEMICAL CORPORATION, priority 2019, published 2023).
